Results taken from patent US20110269130A1, “Antibiotice Susceptibility Profiling Methods” (priority 2008, published 2011).

How the values were obtained:
[1] = tested on: S. aureus ATCC 29213 (wild type); assay: PNA-FISH antibiotic susceptibility test, wild type S. aureus; format: cell-based; settings: OX 2 μg/mL and higher (2, 4, 8 μg), 6 hr incubation in Phoenix AST broth, 10^5 CFU/ml, PNA-FISH fluorescence imaging
Procedure: (§1) S. aureus ATCC 29213 and S. aureus POS 3663 cultures with a concentration of 10^5CFU/ml were divided into six 400 μl subsamples and incubated with or without OX antibiotic for 0 or 6 hours in Phoenix AST broth as indicated in the following table.
(§2) Each subsample was placed into separate 1.5 mL microcentrifuge tubes following incubation. The tubes were centrifuged at 5000 rpm for 3 minutes and the supernatants were discarded. The bacteria were resuspended in […] of 80% ethanol and incubated for 5 minutes at room temperature and then centrifuged at 5000 rpm for 3 minutes. The supernatants were discarded and the bacteria were resuspended in one drop (approximately 25 μL) of the S. aureus-specific PNA-probe solution from the PNA FISH Kit and incubated for 1.5 hours at 55° C. After hybridization, 500 μL of the washing solution from the PNA FISH Kit was added and the tubes were incubated at 55° C. for 30 minutes. The tubes were centrifuged 10,000 rpm for 3 minutes and the supernatants were discarded. The bacterial pellets were resuspended in 150 μL PBS, and 40 μL of each subsample was transferred onto a 0.2 μm pore-size polycarbonate membrane using a flow-through device. The membrane was then transferred to a glass slide and covered with a cover slip. The membrane was then imaged using a fluorescence microscope.

[2] = tested on: S. aureus POS 3663 (MRSA); assay: PNA-FISH antibiotic susceptibility test, MRSA; format: cell-based; settings: OX at concentrations as high as 8 μg/mL, 6 hr incubation in Phoenix AST broth, 10^5 CFU/ml, PNA-FISH fluorescence imaging
Procedure: as §1, §2

Structure (SMILES): Cc1onc(-c2ccccc2)c1C(=O)N[C@@H]1C(=O)N2[C@@H]1SC(C)(C)[C@@H]2C(=O)O [oxacillin]
- effect of oxacillin (OX) on the growth of wild type S. aureus ATCC 29213 [1]: killed the bacteria
- effect of oxacillin (OX) on the growth of wild type S. aureus ATCC 29213 ([1]; listed as OX): most of the wild type S. aureus were killed
- effect of oxacillin (OX) on the growth of resistant S. aureus POS 3663 [2]: had no effect on the growth
- effect of oxacillin (OX) on the growth of resistant S. aureus POS 3663 ([2]; listed as OX): continues to grow
